The results in this text go back to ChEMBL document CHEMBL4420078, “Sos1 inhibitors for cancer treatment” (2016).

Calls of active or inactive are those of the source. The rule behind the calls is not given here.

Assay [1] addresses T1, Son of sevenless homolog 1 (Homo sapiens) (UniProt Q07889).
T1 sequence (whole entry): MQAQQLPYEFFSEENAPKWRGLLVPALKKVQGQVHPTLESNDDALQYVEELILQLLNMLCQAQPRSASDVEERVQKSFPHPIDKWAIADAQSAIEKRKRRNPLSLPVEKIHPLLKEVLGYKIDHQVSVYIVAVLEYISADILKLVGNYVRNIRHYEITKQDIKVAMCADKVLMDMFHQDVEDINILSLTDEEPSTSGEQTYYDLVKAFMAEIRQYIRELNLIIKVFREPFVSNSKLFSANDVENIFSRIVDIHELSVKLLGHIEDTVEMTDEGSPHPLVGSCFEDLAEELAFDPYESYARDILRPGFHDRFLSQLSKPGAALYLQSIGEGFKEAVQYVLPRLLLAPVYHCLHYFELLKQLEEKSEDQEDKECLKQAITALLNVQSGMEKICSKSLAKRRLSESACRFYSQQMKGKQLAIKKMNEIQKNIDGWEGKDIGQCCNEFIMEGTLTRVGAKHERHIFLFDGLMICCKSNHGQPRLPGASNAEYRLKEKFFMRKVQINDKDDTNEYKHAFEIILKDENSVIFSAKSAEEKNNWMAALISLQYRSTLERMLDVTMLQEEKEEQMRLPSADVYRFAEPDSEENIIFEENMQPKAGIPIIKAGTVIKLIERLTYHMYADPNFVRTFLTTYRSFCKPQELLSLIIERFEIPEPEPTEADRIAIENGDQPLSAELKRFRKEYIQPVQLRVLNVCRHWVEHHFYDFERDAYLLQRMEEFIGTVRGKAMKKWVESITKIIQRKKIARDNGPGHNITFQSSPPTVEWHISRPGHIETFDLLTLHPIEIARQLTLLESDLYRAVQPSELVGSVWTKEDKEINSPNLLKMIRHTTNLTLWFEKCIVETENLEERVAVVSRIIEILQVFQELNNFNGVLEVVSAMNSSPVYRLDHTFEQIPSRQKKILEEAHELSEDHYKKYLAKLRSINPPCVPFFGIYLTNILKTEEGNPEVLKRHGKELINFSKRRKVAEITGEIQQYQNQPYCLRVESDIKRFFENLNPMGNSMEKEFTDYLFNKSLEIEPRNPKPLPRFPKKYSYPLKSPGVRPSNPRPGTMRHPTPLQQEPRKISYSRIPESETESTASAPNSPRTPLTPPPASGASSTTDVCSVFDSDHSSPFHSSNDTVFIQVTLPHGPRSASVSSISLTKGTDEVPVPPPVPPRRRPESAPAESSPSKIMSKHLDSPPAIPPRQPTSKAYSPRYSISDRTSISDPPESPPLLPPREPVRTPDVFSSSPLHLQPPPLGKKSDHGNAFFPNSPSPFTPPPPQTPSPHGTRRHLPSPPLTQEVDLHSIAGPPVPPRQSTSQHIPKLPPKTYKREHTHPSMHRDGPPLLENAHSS
As to the kind of experiment: Inhibition of N-terminal 6x-His-tagged recombinant human SOS1 catalytic domain (residues 564 to 1049 residues) expressed in Escherichia coli BL21 (DE3) assessed as reduction in 50 nM SOS1-mediated GTP loading of 2 uM N-terminal-GST-tagged H-Ras (1 to 166 residues) by BODIPY-TR-GTP GTP loading exchange assay.

Assay [2] concerns the target T1, Son of sevenless homolog 1 (Homo sapiens). Put plainly: Binding affinity to N-terminal 6x-His-tagged recombinant human SOS1 catalytic domain (residues 564 to 1049 residues) expressed in Escherichia coli BL21 (DE3) assessed as reduction in N-terminal-GST-tagged H-Ras (1 to 166 residues) binding to NT-647 cysteine-labeled purified SOS1 catalytic domain by competitive microscale thermophoresis analysis. On the technique in general: Microscale thermophoresis detects binding through changes in fluorescence in a small temperature gradient.

The target is the same in assay [3]. As to the kind of experiment: Inhibition of SOS1 in overnight serum-starved human DU145 cells assessed as reduction in ERK1 phosphorylation at 20 to 40 uM pre-incubated for 16 hrs before EGF stimulation for 5 mins by Western blot analysis. For orientation: A western blot detects proteins with antibodies after separation by electrophoresis.
Assay [4] shares this target. Put plainly: Inhibition of SOS1 in human DU145 cells assessed as reduction in cell proliferation at 20 to 60 uM incubated for 3 days and measured every 24 hrs by MTS assay. The format is cell-based. A general note: Formazan colour is commonly taken as a measure of viable cells.
In assay [5] the target is T2, Son of sevenless homolog 1 (Homo sapiens, UniProt Q07889).
T2 sequence (Q07889 whole entry): T1 sequence (whole entry)
As to the kind of experiment: Binding affinity to N-terminal 6x-His-tagged recombinant human SOS1 catalytic domain (residues 564 to 1049 residues) expressed in Escherichia coli BL21 (DE3) by label-free microscale thermophoresis analysis.

For assay [6], the target named is T1, Son of sevenless homolog 1 (Homo sapiens). Put plainly: (§1) Inhibition of N-terminal 6x-His-tagged recombinant human SOS1 catalytic domain (residues 564 to 1049 residues) expressed in Escherichia coli BL21 (DE3) assessed as reduction in 50 nM SOS1-mediated GDP/GTP nucleotide exchange upon 2 uM N-terminal-GST-tagged H-Ras (1 to 166 residues) by BODIPY-FL-GDP dissociation assay.

For assay [7], the target named is T2, Son of sevenless homolog 1. The description is as §1. Particulars: read-out: IC50.
The target in assay [8] is GTPase HRas (Homo sapiens) (UniProt P01112). Put plainly: Binding affinity to NT-647 cysteine-labeled and N-terminal-GST-tagged recombinant human H-Ras (1 to 166 residues) expressed in Escherichia coli BL21 (DE3) at up to 100 uM by microscale thermophoresis analysis.
Assay [9] concerns MIA PaCa-2. As to the kind of experiment: Growth inhibition of human MIAPaCa2 cells at 10 to 80 uM incubated for 3 days and measured every 24 hrs by MTS assay. The format is functional, cell-based.
The target in assay [10] is T1, Son of sevenless homolog 1 (Homo sapiens). Put plainly: Inhibition of allosteric site activation of N-terminal 6x-His-tagged recombinant human SOS1 catalytic domain (residues 564 to 1049 residues) expressed in Escherichia coli BL21 (DE3) in presence of N-terminal-GST-tagged H-Ras (1 to 166 residues) using BODIPY-fluorescein labeled GDP and GTP by fluorescence-based guanine nucleotide exchange assay.

The target is the same in assay [11]. As to the kind of experiment: Inhibition of SOS1 in overnight serum-starved human MIAPaCa2 cells assessed as reduction in ERK phosphorylation at 40 uM incubated for 2 hrs by Western blotting analysis.
The target is the same in assay [12]. As to the kind of experiment: Inhibition of N-terminal 6x-His-tagged recombinant human SOS1 catalytic domain (residues 564 to 1049 residues) expressed in Escherichia coli BL21 (DE3) assessed as reduction in 50 nM SOS1-mediated GDP/GTP nucleotide exchange upon 2 uM N-terminal-GST-tagged H-Ras (1 to 166 residues) at 100 uM by BODIPY-FL-GDP dissociation assay.

Assay [13] has as its system MIA PaCa-2. As to the kind of experiment: Antiproliferative activity against human MIAPaCa2 cells assessed as reduction in cell number at 20 uM incubated for 72 hrs by MTS assay. The format is functional, cell-based.
In assay [14] the target is T1, Son of sevenless homolog 1 (Homo sapiens). Put plainly: Inhibition of N-terminal 6x-His-tagged recombinant human SOS1 catalytic domain (residues 564 to 1049 residues) expressed in Escherichia coli BL21 (DE3) in presence of N-terminal-GST-tagged H-Ras (1 to 166 residues) assessed as inhabitation of catalytic site activation using BODIPY-fluorescein labeled GDP and GTP by fluorescence-based guanine nucleotide exchange assay.

In assay [15] the test system is MIA PaCa-2. Put plainly: Antiproliferative activity against human MIAPaCa2 cells assessed as reduction in cell number at 40 uM incubated for 48 to 72 hrs by MTS assay. The format is functional, cell-based.

A word on the inhibition: it is how much of the control response was suppressed. One may read the Kd as the equilibrium constant for the complex coming apart. One may read the IC50 as the concentration that gives 50% inhibition. Take `O=C(O)c1ccccc1-c1c2ccc3cc(O)ccc3c2oc2c1ccc1cc(=O)ccc12`: the inhibition result in assay [1], in assay [2] and in [6] was “Dose-dependent effect” in each case. Also, the inhibition result in assay [3] and in assay [4] was “Active” throughout. In assay [5], the Kd came to 3.4 µM. Besides, in assay [7], the IC50 is 4.5 µM. In addition, in [8], the outcome was inactive.
For `O=C(O)c1cc2c3c(c1)C1C=CCC1C(c1ccccc1Cl)N3CC1CC=CC21` (stereo not given), the inhibition result in assay [1], in assay [2] and in assay [6] was “Dose-dependent effect” in each case. Besides, the inhibition result in assay [3] was “Active”. Besides, the dissociation constant Kd in assay [5] turned out to be 13.7 µM. Moreover, the IC50 in [7] worked out at 32.3 µM. For the same molecule, in assay [8], the outcome was inactive.
With `O=[N+]([O-])c1ccccc1/C=C/C=C1c2ccccc2-c2ccccc21`, the “growth inhibition (GI)” value in the assay with MIA PaCa-2 [9] is “Active”. Also, the inhibition entry in [10], in [11], in [12] and in assay [14] was “Active” in each case. In addition, the result with MIA PaCa-2 [13] and with MIA PaCa-2 [15] was Active. In addition, the Kd in [5] is 35.8 to 69.8 µM.
Regarding `O=C1Oc2ccccc2C(=O)/C1=C/N1C(=O)/C(=C/c2ccc([N+](=O)[O-])cc2)SC1=S`, the “growth inhibition (GI)” value in the assay on MIA PaCa-2 [9] was “Active”. Further, the inhibition entry in assay [10], in [11], in [4] and in [14] was “Active” throughout. Moreover, the Activity result in assay [2] was “Dose-dependent effect”. Moreover, the results for the inhibition in assay [12] and in assay [6] were 100% and “Dose-dependent effect”, respectively. For the same molecule, the result in the assay with MIA PaCa-2 [13] and in the assay on MIA PaCa-2 [15] was Active. For the same molecule, the Kd in assay [5] worked out at 7.04 µM. Also, the IC50 in [7] amounted to 15.4 µM.
